{"source": "patent US10093660B2", "about": "“Sulfoximine substituted quinazolines for pharmaceutical compositions” (EVOTEC INTERNATIONAL GMBH, priority 2013, dated 2018)", "key": {"MNK2a": {"target": "MNK2a (Homo sapiens (Human), UniProt Q9HBH9)", "sequence (Q9HBH9 whole entry)": "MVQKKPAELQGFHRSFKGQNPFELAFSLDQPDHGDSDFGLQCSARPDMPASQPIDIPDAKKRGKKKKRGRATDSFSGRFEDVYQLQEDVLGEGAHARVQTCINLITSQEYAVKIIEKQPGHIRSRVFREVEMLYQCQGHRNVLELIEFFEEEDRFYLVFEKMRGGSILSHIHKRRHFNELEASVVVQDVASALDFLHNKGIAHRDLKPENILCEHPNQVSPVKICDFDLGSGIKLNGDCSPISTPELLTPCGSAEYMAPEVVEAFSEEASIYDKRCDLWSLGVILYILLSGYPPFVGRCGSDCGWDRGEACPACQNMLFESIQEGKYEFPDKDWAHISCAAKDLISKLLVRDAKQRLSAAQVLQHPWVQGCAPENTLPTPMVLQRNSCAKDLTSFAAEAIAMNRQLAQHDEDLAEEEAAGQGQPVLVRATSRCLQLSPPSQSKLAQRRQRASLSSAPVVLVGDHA", "assay": "MNK2a in vitro kinase assay (Assay 2), ADP-Glo", "format": "biochemical", "conditions": "assay 2; read-out: MNK2 IC50", "text": "B. MNK2a In Vitro Kinase Assay (Assay 2)"}, "MNK1a": {"target": "MNK1a (Homo sapiens (Human), UniProt Q9BUB5)", "sequence (Q9BUB5 other isoform, or with tags, fused parts or gaps)": "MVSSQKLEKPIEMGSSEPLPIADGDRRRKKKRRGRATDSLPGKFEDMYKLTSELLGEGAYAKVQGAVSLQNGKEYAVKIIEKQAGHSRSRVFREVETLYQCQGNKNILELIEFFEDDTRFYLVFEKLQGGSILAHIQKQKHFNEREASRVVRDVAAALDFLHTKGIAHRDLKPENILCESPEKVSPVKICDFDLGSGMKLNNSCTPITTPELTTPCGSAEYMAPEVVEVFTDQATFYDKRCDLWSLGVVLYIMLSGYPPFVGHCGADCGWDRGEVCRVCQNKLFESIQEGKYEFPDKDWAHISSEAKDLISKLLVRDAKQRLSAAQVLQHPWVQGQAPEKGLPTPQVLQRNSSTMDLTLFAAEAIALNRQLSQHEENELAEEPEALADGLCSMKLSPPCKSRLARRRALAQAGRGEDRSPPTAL", "assay": "MNK1 in vitro kinase assay (Assay 3), Z'-LYTE", "format": "biochemical", "conditions": "for inhibition at 1 µM: compound concentration of 1 μM, read-out: MNK1 % INH", "text": "C. MNK1 In Vitro Kinase Assay (Assay 3)\nMNK1 Data can be obtained from the MNK1 Z′-LYTE® assay. The MNK1 Z′-LYTE® screening protocol and assay conditions are also described on www.invitrogen.com.\nThe assay is described as follows:\nThe Z′-LYTE® biochemical assay employs a fluorescence-based, coupled-enzyme format and is based on the differential sensitivity of phosphorylated and non-phosphorylated peptides to proteolytic cleavage. The peptide substrate is labeled with two fluorophores—one at each end—that make up a FRET pair.\nIn the primary reaction, the kinase transfers the gamma-phosphate of ATP to a single tyrosine, serine or threonine residue in a synthetic FRET-peptide. In the secondary reaction, a site-specific protease recognizes and cleaves non-phosphorylated FRET-peptides. Phosphorylation of FRET-peptides suppresses cleavage by the Development Reagent. Cleavage disrupts FRET between the donor (i.e., coumarin) and acceptor (i.e., fluorescein) fluorophores on the FRET-peptide, whereas uncleaved, phosphorylated FRET-peptides maintain FRET. A ratiometric method, which calculates the ratio (the Emission Ratio) of donor emission to acceptor emission after excitation of the donor fluorophore at 400 nm, is used to quantitate reaction progress, as shown in the equation below.\nThe 2×MKNK1 (MNK1) mixture is prepared in 50 mM HEPES pH 7.5, 0.01% BRIJ-35, 10 mM MgCl2, 4 mM MnCl2, 1 mM EGTA, 2 mM DTT.\nThe Test Compounds are screened in 1% DMSO (final) in the well.\nAll Peptide/Kinase Mixtures are diluted to a 2× working concentration in the MNK1 Kinase Buffer.\nAll ATP Solutions are diluted to a 4× working concentration in Kinase Buffer (50 mM HEPES pH 7.5, 0.01% BRIJ-35, 10 mM MgCl2, 1 mM EGTA).\nDevelopment Reagent Solution:\nThe Development Reagent is diluted in Development Buffer\n1. 2.5 μL—4× Test Compound\n2. 5 μL—2× Peptide/Kinase Mixture\n5. 60-minute Kinase Reaction incubation at room temperature\n6. 5 μL—Development Reagent Solution\n8. 60-minute Development Reaction incubation at room temperature\n9. Read on fluorescence plate reader and analyze the data\nControl C0%=Average Coumarin emission signal of the 0% Phos. Control F100%=Average Fluorescein emission signal of the 100% Phos. Control F0%=Average Fluorescein emission signal of the 0% Phos. Control Graphing Software\nSelectScreen® Kinase Profiling Service uses XLfit from IDBS. […] The activity of MNK proteins can be assayed also by other in vitro kinase assay formats. […] In general, MNK kinase assays can be performed such that a MNK substrate such as a protein or a peptide, which may or may not include modifications as further described below, or others are phosphorylated by MNK proteins having enzymatic activity in vitro. The activity of a candidate agent can then be determined via its ability to decrease the enzymatic activity of the MNK protein. The kinase activity may be detected by change of the chemical, physical or immunological properties of the substrate due to phosphorylation."}}, "data": [{"smiles": "CO[C@@H]1CN(C)C[C@H]1Oc1ncccc1Nc1ncnc2cc(N=S3(=O)CCCC3)cc(C)c12", "note": "[Example 11.3]", "values": [{"measurement": "IC50", "setting": "MNK2a", "value": 12, "unit": "nM"}, {"measurement": "inhibition at 1 µM", "setting": "MNK1a", "value": 87, "unit": "%"}]}, {"smiles": "Cc1cc(N=S(C)(=O)c2ccccc2)cc2ncnc(Nc3ccc(F)cc3O[C@H]3COC[C@@H]3O)c12", "note": "(some centres unmarked) [Example 2.75]", "values": [{"measurement": "IC50", "setting": "MNK2a", "value": 8, "unit": "nM"}, {"measurement": "IC50", "setting": "MNK1a", "value": 95, "unit": "nM"}]}, {"smiles": "CO[C@@H]1CN(C(C)=O)C[C@H]1Oc1cc(F)ccc1Nc1ncnc2cc(N=S(C)(C)=O)cc(C)c12", "note": "[Example 6.1]", "values": [{"measurement": "IC50", "setting": "MNK2a", "value": 389, "unit": "nM"}, {"measurement": "inhibition at 1 µM", "setting": "MNK1a", "value": 10, "unit": "%"}]}, {"smiles": "Cc1cc(N=[S@@](C)(=O)c2ccccc2)cc2ncnc(Nc3ccc(F)cc3O[C@@H]3COC[C@@H]3O)c12", "note": "[Example 2.64]", "values": [{"measurement": "IC50", "setting": "MNK2a", "value": 9, "unit": "nM"}, {"measurement": "inhibition at 1 µM", "setting": "MNK1a", "value": 88, "unit": "%"}]}, {"smiles": "CO[C@@H]1CN(CC(F)F)C[C@H]1Oc1ncccc1Nc1ncnc2cc(N=S(C)(C)=O)cc(C)c12", "note": "[Example 5.2]", "values": [{"measurement": "IC50", "setting": "MNK2a", "value": 72, "unit": "nM"}, {"measurement": "inhibition at 1 µM", "setting": "MNK1a", "value": 56, "unit": "%"}]}, {"smiles": "CO[C@@H]1CN(C(=O)OCc2ccccc2)C[C@H]1Oc1cc(F)ccc1Nc1ncnc2cc(N=S(C)(C)=O)cc(C)c12", "note": "[Example 2.14]", "values": [{"measurement": "IC50", "setting": "MNK2a", "value": 108, "unit": "nM"}, {"measurement": "inhibition at 1 µM", "setting": "MNK1a", "value": 19, "unit": "%"}]}, {"smiles": "COc1cc(N=S(C)(=O)C2CC2)cc2ncnc(Nc3ccc(F)cc3O[C@H]3COC[C@H]3O)c12", "note": "(mixture of isomers) [Example 9.17]", "values": [{"measurement": "IC50", "setting": "MNK2a", "value": 33, "unit": "nM"}, {"measurement": "inhibition at 1 µM", "setting": "MNK1a", "value": 92, "unit": "%"}]}, {"smiles": "CC(=O)N1C[C@@H](O)[C@H](Oc2cc(F)ccc2Nc2ncnc3cc(N=S4(=O)CCCC4)cc(C)c23)C1", "note": "[Example 2.13]", "values": [{"measurement": "IC50", "setting": "MNK2a", "value": 16, "unit": "nM"}, {"measurement": "inhibition at 1 µM", "setting": "MNK1a", "value": 90, "unit": "%"}]}, {"smiles": "Cc1cc(N=S(C)(C)=O)cc2ncnc(Nc3cccnc3O[C@@H]3COC[C@@H]3O)c12", "note": "(racemic) [Example 2.4]", "values": [{"measurement": "IC50", "setting": "MNK2a", "value": 17, "unit": "nM"}, {"measurement": "inhibition at 1 µM", "setting": "MNK1a", "value": 93, "unit": "%"}]}, {"smiles": "COc1cc(N=S2(=O)CCC(C)C2)cc2ncnc(Nc3ccc(F)cc3O[C@H]3COC[C@H]3O)c12", "note": "(mixture of isomers) [Example 9.23]", "values": [{"measurement": "IC50", "setting": "MNK2a", "value": 8, "unit": "nM"}, {"measurement": "inhibition at 1 µM", "setting": "MNK1a", "value": 93, "unit": "%"}]}, {"smiles": "Cc1cc(N=S(C)(C)=O)cc2ncnc(Nc3ccc(Cl)cc3O[C@@H]3COC[C@H]3O)c12", "note": "[Example 1.31]", "values": [{"measurement": "IC50", "setting": "MNK2a", "value": 6, "unit": "nM"}, {"measurement": "inhibition at 1 µM", "setting": "MNK1a", "value": 91, "unit": "%"}]}, {"smiles": "COc1cc(N=S(C)(C)=O)cc2ncnc(Nc3ccc(F)cc3O[C@H]3COC[C@@H]3O)c12", "note": "[Example 9.4]", "values": [{"measurement": "IC50", "setting": "MNK2a", "value": 7, "unit": "nM"}, {"measurement": "inhibition at 1 µM", "setting": "MNK1a", "value": 102, "unit": "%"}]}, {"smiles": "O=S1(=Nc2cc(Cl)c3c(Nc4ccc(F)cc4O[C@H]4COC[C@H]4O)ncnc3c2)CCCC1", "note": "(single isomer, unassigned) [Example 14.10]", "values": [{"measurement": "IC50", "setting": "MNK2a", "value": 2, "unit": "nM"}, {"measurement": "inhibition at 1 µM", "setting": "MNK1a", "value": 101, "unit": "%"}]}, {"smiles": "CO[C@@H]1CN(C(C)=O)C[C@H]1Oc1cc(F)ccc1Nc1ncnc2cc(N=S3(=O)CCCC3)cc(C)c12", "note": "[Example 6.2]", "values": [{"measurement": "IC50", "setting": "MNK2a", "value": 185, "unit": "nM"}, {"measurement": "inhibition at 1 µM", "setting": "MNK1a", "value": 31, "unit": "%"}]}, {"smiles": "Cc1cc(N=S(C)(C)=O)cc2ncnc(Nc3ccc(F)cc3O[C@H]3COC[C@H]3OCC3CC3)c12", "note": "(racemic) [Example 7.2]", "values": [{"measurement": "IC50", "setting": "MNK2a", "value": 6, "unit": "nM"}, {"measurement": "inhibition at 1 µM", "setting": "MNK1a", "value": 94, "unit": "%"}]}, {"smiles": "COc1cc(N=S2(=O)CCCC2)cc2ncnc(Nc3ccc(F)cc3O[C@H]3COC[C@H]3OC)c12", "note": "(racemic) [Example 9.2]", "values": [{"measurement": "IC50", "setting": "MNK2a", "value": 2, "unit": "nM"}, {"measurement": "inhibition at 1 µM", "setting": "MNK1a", "value": 94, "unit": "%"}]}, {"smiles": "CO[C@@H]1CNC[C@H]1Oc1ncccc1Nc1ncnc2cc(N=S(C)(C)=O)cc(C)c12", "note": "[Example 4.5]", "values": [{"measurement": "IC50", "setting": "MNK2a", "value": 33, "unit": "nM"}, {"measurement": "inhibition at 1 µM", "setting": "MNK1a", "value": 63, "unit": "%"}]}, {"smiles": "Cc1cc(N=S(C)(C)=O)cc2ncnc(Nc3cccnc3O[C@@H]3CN(C)C[C@H]3O)c12", "note": "[Example 2.19]", "values": [{"measurement": "IC50", "setting": "MNK2a", "value": 132, "unit": "nM"}, {"measurement": "inhibition at 1 µM", "setting": "MNK1a", "value": 45, "unit": "%"}]}, {"smiles": "CO[C@@H]1CN(C(=O)OCc2ccccc2)C[C@H]1Oc1cc(F)ccc1Nc1ncnc2cc(N=S3(=O)CCCC3)cc(C)c12", "note": "[Example 2.15]", "values": [{"measurement": "IC50", "setting": "MNK2a", "value": 78, "unit": "nM"}, {"measurement": "inhibition at 1 µM", "setting": "MNK1a", "value": 31, "unit": "%"}]}, {"smiles": "Cc1cc(N=S2(=O)CCCC2)cc2ncnc(Nc3cccnc3O[C@H]3CNC[C@@H]3O)c12", "note": "[Example 3.3]", "values": [{"measurement": "IC50", "setting": "MNK2a", "value": 26, "unit": "nM"}, {"measurement": "inhibition at 1 µM", "setting": "MNK1a", "value": 88, "unit": "%"}]}, {"smiles": "COc1cc(N=S(C)(=O)c2ccccc2)cc2ncnc(Nc3ccc(F)cc3O[C@H]3COC[C@H]3O)c12", "note": "(mixture of isomers) [Example 9.21]", "values": [{"measurement": "IC50", "setting": "MNK2a", "value": 23, "unit": "nM"}, {"measurement": "inhibition at 1 µM", "setting": "MNK1a", "value": 84, "unit": "%"}]}, {"smiles": "CO[C@@H]1COC[C@@H]1Oc1cc(F)ccc1Nc1ncnc2cc(N=S3(=O)CCCC3)cc(C)c12", "note": "(racemic) [Example 2.10]", "values": [{"measurement": "IC50", "setting": "MNK2a", "value": 2, "unit": "nM"}, {"measurement": "inhibition at 1 µM", "setting": "MNK1a", "value": 105, "unit": "%"}]}]}
